From US8431525B2, “Coelenteramide analogs” (JNC Corporation, priority 2009, dated 2013)

Assays:
[1] = 0.1N H2SO4, ex. 366 nm; value taken as reference; cited from earlier work
[2] = Fluorescence spectrum and fluorescence quantum yield of CTMD analogs at 750 nM (Example 1); type: physicochemical; conditions: for fluorescence spectrum detected / λmax (MeOH)/nm / Fluorescence quantum yield (MeOH): 750 nM; for fluorescence properties compared with known CTMD (c-4) or h-CTMD (c-13): from TABLE 1; for Fluorescence quantum yield (PB) / λmax (PB)/nm: 67 mM phosphate buffer pH 7.4, 750 nM; for Fluorescence quantum yield (PB) / λmax (PB)/nm / λmax (MeOH)/nm / Fluorescence quantum yield (MeOH): 25° C., excited at 330 nm; for Fluorescence quantum yield (PB) / Fluorescence quantum yield (MeOH): relative to quinine sulfate 0.55; for λmax (PB)/nm / λmax (MeOH)/nm: fluorescence emission; for λmax (MeOH)/nm / Fluorescence quantum yield (MeOH): methanol
Experimental: (§1) The fluorescence quantum yield of each CTMD analog synthesized was determined by the following procedure. The fluorescence spectrum was measured at 25° C. using a spectrofluorometer FP-6500 of JASCO (JASCO Corp., Tokyo). Specifically, the CTMD analog was dissolved in methanol (MeOH) or in 67 mM phosphate buffer (PB) (pH 7.4) at a final concentration of 750 nM using a quartz cell (light path length of 10 mm). Measurement was performed 3 times at the excited wavelength of 330 nm, emission/excitation band width of 3 nm, response of 0.5 second and scanning rate of 100 nm/min. The average was taken as the fluorescence spectrum of the compound. The fluorescence quantum yield was determined after the spectrum was corrected.
Quinine sulfate was used as a standard for determining the fluorescence quantum yield. After quinine sulfate (Wako Pure Chemical Industries) was dissolved in 0.1N sulfuric acid aqueous solution, measurement was performed at the excitation light of 366 nm under the conditions for fluorescence measurements described above. The relative fluorescence quantum yield (fluorescence intensity) of the compound was calculated relative to the quantum yield of quinine sulfate as being 0.55.

[3] = Fluorescence spectrum in 50 mM Tris-HCl (pH 7.6) containing 10 mM CaCl2 at 18 μM; type: physicochemical; conditions: 10 mM CaCl2, 18 μM
Experimental: (§2) The fluorescence quantum yield determined in EXAMPLE 1 was estimated by measuring the fluorescence spectra when the final concentration of coelenteramide analogs was 750 nM. When the final concentration was 750 nM as in EXAMPLE 1, any fluorescence spectrum was not detected for c-14, c-31 and c-36 both in methanol and in a phosphate buffer, and not detected for c-25 in a phosphate buffer, in coelenteramide analogs of the present invention (n.d.: not detected). With respect to c-14, c-31, c-25 and c-36 that no fluorescence spectrum was detected, fluorescence spectra were measured under the same conditions as in EXAMPLE 1 except that the final concentration of these coelenteramide analogs was 30 μM. In a similar method, the fluorescence spectrum for C-4 was also measured at a final concentration of 30 μM. The fluorescence spectrum also for […] was measured in 50 mM Tris-HCl (pH 7.6) containing 10 mM CaCl2 under the same conditions as in EXAMPLE 1 except that the final concentration was 18 μM.
The fluorescence spectrum of c-38 was measured at 25° C. using a JASCO spectrofluorometer FP-6500 (JASCO Corp., Tokyo). Specifically, c-38 was dissolved in 50 mM Tris-HCl (pH 7.6) containing 10 mM CaCl2 at a final concentration of 18 μM using a quartz cell (light path length of 10 mm). […] The average was taken as the fluorescence spectrum.

[4] = Fluorescence spectra at a final concentration of 30 μM (Example 2); type: physicochemical; conditions: excited at 330 nm; for Fluorescence Intensity (MeOH) / λmax (MeOH)/nm: methanol, 30 μM; for Fluorescence Intensity (PB) / λmax (PB)/nm: phosphate buffer pH 7.4, 30 μM
Experimental: as §1, §2

[5] = both in methanol and in a phosphate buffer

Compound	melting point	Fluorescence Intensity (MeOH) [4]	λmax (MeOH)/nm [4] [nm]	Fluorescence Intensity (PB) [4]	λmax (PB)/nm [4] [nm]	fluorescence spectrum detected [2, 5]	fluorescence properties compared with known CTMD (c-4) or h-CTMD (c-13) [2]	Fluorescence quantum yield (PB) [2]	λmax (PB)/nm [2] [nm]	λmax (MeOH)/nm [2] [nm]	Fluorescence quantum yield (MeOH) [2]	other results
C=C[C@H]1CN2CC[C@H]1C[C@H]2[C@H](O)c1ccnc2ccc(OC)cc12.C=C[C@H]1CN2CC[C@H]1C[C@H]2[C@H](O)c1ccnc2ccc(OC)cc12.O=S(=O)(O)O [quinine, quinine sulfate, reference compound]	–	–	–	–	–	–	–	–	–	–	–	Fluorescence quantum yield of the standard [1]: 0.55; λmax of the standard ([2]; 0.1N H2SO4, ex. 366 nm): 451 nm
Oc1ccc(CC(=S)Nc2ncc(-c3ccc(O)cc3)nc2Cc2ccccc2)cc1 [c-45, 3-Benzyl-5-(4-hydroxyphenyl)-2-[(4-hydroxyphenyl)thioacetylamino]pyrazine]	101 to 103 °C	–	–	–	–	–	–	–	–	–	–	fluorescence ability in an aqueous solution [3]: had the fluorescence ability
Oc1ccc(-c2cnc(NC(=S)Cc3ccccc3)c(Cc3ccccc3)n2)cc1 [c-14, 3-Benzyl-5-(4-hydroxyphenyl)-2-(phenylthioacetylamino)pyrazine]	195 to 198 °C	6.5	428.0	1.4	435.5	not detected	different fluorescence properties	–	–	–	–	–
O=S(=O)(Cc1ccc(O)cc1)Nc1ncc(-c2ccc(O)cc2)nc1Cc1ccccc1 [c-38, 3-Benzyl-2-(4-hydroxybenzyl)sulfonylamino-5-(4-hydroxyphenyl)pyrazine]	194.5 to 196.5 °C	–	–	–	–	–	–	–	–	–	–	fluorescence capacity ([3]; excited at 330 nm, FIG. 4): has the fluorescence capacity
O=[N+]([O-])c1ccc(S(=O)(=O)Nc2ncc(-c3ccc(O)cc3)nc2Cc2ccccc2)cc1 [c-36, 3-Benzyl-5-(4-hydroxyphenyl)-2-[(4-nitrophenyl)sulfonylamino]pyrazine]	176 to 177.5 °C (dec.)	3.6	433.0	0.8	433.5	not detected	different fluorescence properties	–	–	–	–	–
O=C(Cc1ccc(O)cc1)Nc1ncc(-c2ccc(O)cc2)nc1Cc1ccccc1 [c-4, 3-benzyl-5-(4-hydroxyphenyl)-2-[(4-hydroxyphenyl)acetylamino]pyrazine, reference compound]	–	80.0	428.0	1.7	444.5	–	–	0.001	451	427.5	0.012	–
CC(=O)Nc1ncc(-c2ccc(O)cc2)nc1Cc1ccccc1 [c-25, 2-Acetylamino-3-benzyl-5-(4-hydroxyphenyl)pyrazine]	–	–	–	2.0	446.0	–	–	–	446.5	425.5	0.009	fluorescence spectrum detected ([2]; in a phosphate buffer): not detected
COc1ccc(-c2cnc(NS(=O)(=O)Cc3ccccc3)c(Cc3ccccc3)n2)cc1 [c-18, 3-Benzyl-2-benzylsulfonylamino-5-(4-methoxyphenyl)pyrazine]	213 to 215 °C	–	–	–	–	–	different fluorescence properties	0.147	429	416.5	0.293	–
CC(=O)Oc1ccc(-c2cnc(N(S(C)(=O)=O)S(C)(=O)=O)c(Cc3ccccc3)n2)cc1 [c-39, 5-(4-Acetoxyphenyl)-3-benzyl-2-bis(methanesulfonyl)aminopyrazine]	165.5 to 167 °C	–	–	–	–	–	different fluorescence properties	0.096	419	381.5	0.079	–
CC(=O)Oc1ccc(-c2cnc(NC(=S)Cc3ccccc3)c(Cc3ccccc3)n2)cc1 [c-31, 5-(4-Acetoxyphenyl)-3-benzyl-2-(phenylthioacetylamino)pyrazine]	143 to 145 °C	5.2	422.0	1.7	413.5	not detected	different fluorescence properties	–	–	–	–	–
